From US10857150B2, “Use of sanglifehrin macrocyclic analogues as anticancer compounds” (NEUROVIVE PHARMACEUTICAL AB, priority 2016, dated 2020)

Key:
cyclophilin A (CyPA) = cyclophilin A (CyPA) (Homo sapiens, UniProt P62937); details: Sedrani et al., 2003; cited from earlier work
LIXC-066 = experiment: 7-day proliferation assay, Calcein AM staining; type: cell-based, human; details: Homo sapiens, 168 h, Example 6, n 1
Method: (§1) The cells were seeded in a 96-well plate, test compound or DMSO was added and the plate was incubated for additional four days or 7 days (Calcein AM assay). Viable cell counts were determined after detachment by treatment with trypsin either by trypan blue exclusion, flow cytometry, indirectly by measuring ATP content by addition of an ATP measuring reagent (CellTiter Glo), or Calcein AM, prepared according to the instruction of the manufacturer directly.
(§2) XLfit software ((Fit model: Dose response one site/^F(x)[fit=(A+((B−A)/(1+((C/x)^D))))]) for curve fitting and IC50 calculation) was used for curve fitting and IC50 calculation.
(§3) In vitro evaluation of a sanglifehrin macrocyclic analogue (1) for anticancer activity against human hepatocyte cancer cell lines in comparison with NV556 (10) a 7-day proliferation assay. The cell numbers were determined by Calcein AM staining as described in the methods section. Data are from one experiment with each cell line testing duplicate samples of 9 concentrations of each compound. Both compounds were included in each experiment.
as §3, with “the cyclophilin inhibitor alisporivir and the kinase inhibitor sorafenib in” for “NV556 (10)”, “one single” for “one”, “or means of two independent experiments” for “with each cell line”, “All three” for “Both”

LIXC-086 = experiment: 7-day proliferation assay, Calcein AM staining; type: cell-based, human; details: Homo sapiens, 168 h, Example 6, n 1
Method: as §1, §2, §3
as §3, with “the cyclophilin inhibitor alisporivir and the kinase inhibitor sorafenib in” for “NV556 (10)”, “one single” for “one”, “or means of two independent experiments” for “with each cell line”, “All three” for “Both”

LIXC-006 = experiment: 7-day proliferation assay, Calcein AM staining; type: cell-based, human; details: Homo sapiens, 168 h, Example 6, n 2
Method: as §1, §2, §3
as §3, with “the cyclophilin inhibitor alisporivir and the kinase inhibitor sorafenib in” for “NV556 (10)”, “one single” for “one”, “or means of two independent experiments” for “with each cell line”, “All three” for “Both”

Hep3B2.1-7-Luc = experiment: 7-day proliferation assay, Calcein AM staining; type: cell-based, human; details: Homo sapiens, 168 h, Example 6, n 1
Method: as §1, §2, §3
as §3, with “the cyclophilin inhibitor alisporivir and the kinase inhibitor sorafenib in” for “NV556 (10)”, “one single” for “one”, “or means of two independent experiments” for “with each cell line”, “All three” for “Both”

LIXC-011 = experiment: 7-day proliferation assay, Calcein AM staining; type: cell-based; details: Homo sapiens, 168 h, Example 6, n 1
Method: as §1, §2
as §3, with “the cyclophilin inhibitor alisporivir and the kinase inhibitor sorafenib in” for “NV556 (10)”, “one single” for “one”, “or means of two independent experiments” for “with each cell line”, “All three” for “Both”

HepG2 = experiment: 7-day proliferation assay, Calcein AM staining; type: cell-based; details: Homo sapiens, 168 h, Example 6, n 2
Method: as §1, §2
as §3, with “the cyclophilin inhibitor alisporivir and the kinase inhibitor sorafenib in” for “NV556 (10)”, “one single” for “one”, “or means of two independent experiments” for “with each cell line”, “All three” for “Both”

LIXC-003 = experiment: 7-day proliferation assay, Calcein AM staining; type: cell-based; details: Homo sapiens, 168 h, Example 6, n 2
Method: as §1, §2
as §3, with “the cyclophilin inhibitor alisporivir and the kinase inhibitor sorafenib in” for “NV556 (10)”, “one single” for “one”, “or means of two independent experiments” for “with each cell line”, “All three” for “Both”

LIXC-004 = experiment: 7-day proliferation assay, Calcein AM staining; type: cell-based; details: Homo sapiens, 168 h, Example 6, n 2
Method: as §1, §2
as §3, with “the cyclophilin inhibitor alisporivir and the kinase inhibitor sorafenib in” for “NV556 (10)”, “one single” for “one”, “or means of two independent experiments” for “with each cell line”, “All three” for “Both”

LIXC-012 = experiment: 7-day proliferation assay, Calcein AM staining; type: cell-based; details: Homo sapiens, 168 h, Example 6, n 2
Method: as §1, §2
as §3, with “the cyclophilin inhibitor alisporivir and the kinase inhibitor sorafenib in” for “NV556 (10)”, “one single” for “one”, “or means of two independent experiments” for “with each cell line”, “All three” for “Both”

[1] = test system: cancer cell lines Huh7, HepG2 and OEM; details: three cancer cell lines Huh7, HepG2 and OEM; WO2011/098805; cited from earlier work

Chain of cyclophilin A (CyPA) (P62937 whole entry, species assumed): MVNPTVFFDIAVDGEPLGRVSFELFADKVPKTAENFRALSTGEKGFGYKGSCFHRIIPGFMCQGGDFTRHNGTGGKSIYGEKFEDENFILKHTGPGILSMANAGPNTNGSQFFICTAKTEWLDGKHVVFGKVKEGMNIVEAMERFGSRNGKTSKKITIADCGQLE

SMILES	affinity for CyPA (cyclophilin A (CyPA))	IC50 (LIXC-066) [µM]	IC50 (LIXC-086) [µM]	IC50 (LIXC-006) [µM]	IC50 (Hep3B2.1-7-Luc) [µM]	IC50 (LIXC-011) [µM]	IC50 (HepG2) [µM]	IC50 (LIXC-003) [µM]	IC50 (LIXC-004) [µM]	IC50 (LIXC-012) [µM]	effect on cancer cell lines [1]
CC(=O)CCC1C(=O)NC(C(C)C)C(=O)NC(Cc2cccc(O)c2)C(=O)N2CCCC(N2)C(=O)OC(C(C)=CCO)CC=CC=CC(O)C(C)C1O (centres unmarked) [hydroxymacrocycle]	strong affinity	–	–	–	–	–	–	–	–	–	–
C/C=C/C[C@@H](C)[C@@H](O)[C@H]1C(=O)N[C@@H](CC)C(=O)N(C)[C@H](C)C(=O)N(CC)[C@@H](C(C)C)C(=O)N[C@@H](C(C)C)C(=O)N(C)[C@@H](CC(C)C)C(=O)N[C@@H](C)C(=O)N[C@H](C)C(=O)N(C)[C@@H](CC(C)C)C(=O)N(C)[C@@H](CC(C)C)C(=O)N(C)[C@@H](C(C)C)C(=O)N1C [Alisporivir, alisporivir]	–	1.64	2.25	0.993	2.89	8.71	3.13	4.73	3.81	3.22	–
CC(=O)CCC1C(=O)NC(C(C)C)C(=O)NC(Cc2cccc(O)c2)C(=O)N2CCCC(N2)C(=O)OC(C(C)=CC=CC(=O)OC(C)(C)C)CC=CC=CC(O)C(C)C1O (centres unmarked) [compound 9]	–	–	–	–	–	–	–	–	–	–	limited effect
CNC(=O)c1cc(Oc2ccc(NC(=O)Nc3ccc(Cl)c(C(F)(F)F)c3)cc2)ccn1 [Sorafenib, sorafenib]	–	–	–	3.96	–	0.538	2.96	0.004	2.19	1.15	–
